Test results as given in PubChem BioAssay (NCI).
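Growth conditions: 96-well plates. Treatment: test compound, 48 hours, 5 concentrations. Analysis: linear interpolation between bracketing concentrations; unreached endpoints set to highest concentration. Definition used: TGI = concentration required for complete inhibition of growth.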

Key:
Assay in all cases: DTP human tumour cell line panel, 48 h
[1] = system: 786-0 renal
[2] = system: A498 renal
[3] = system: A549 NSCLC
[4] = system: ACHN renal
[5] = system: BT-549 breast
[6] = system: CAKI-1 renal
[7] = system: COLO 205 colon
[8] = system: DU-145 prostate
[9] = system: EKVX NSCLC
[10] = system: HCC-2998 colon
[11] = system: HCT-116 colon
[12] = system: HCT-15 colon
[13] = system: HL-60(TB) leukemia
[14] = system: HOP-62 NSCLC
[15] = system: HOP-92 NSCLC
[16] = system: HS 578T breast
[17] = system: HT29 colon
[18] = system: IGROV1 ovarian
[19] = system: K-562 leukemia
[20] = system: KM12 colon
[21] = system: LOX IMVI melanoma
[22] = system: M14 melanoma
[23] = system: MALME-3M melanoma
[24] = system: MCF7 breast
[25] = system: MDA-MB-231 breast
[26] = system: MDA-MB-435
[27] = system: MDA-N
[28] = system: MOLT-4 leukemia
[29] = system: NCI-H23 lung
[30] = system: NCI-H460 lung
[31] = system: NCI-H522 lung
[32] = system: NCI/ADR-RES ovarian
[33] = system: OVCAR-3 ovarian
[34] = system: OVCAR-4 ovarian
[35] = system: OVCAR-5 ovarian
[36] = system: OVCAR-8 ovarian
[37] = system: PC-3 prostate
[38] = system: RPMI-8226 leukemia
[39] = system: RXF 393 renal
[40] = system: SF-268 CNS
[41] = system: SF-539 CNS
[42] = system: SK-MEL-2 melanoma
[43] = system: SK-MEL-28 melanoma
[44] = system: SK-MEL-5 melanoma
[45] = system: SK-OV-3 ovarian
[46] = system: SN12C renal
[47] = system: SNB-19 CNS
[48] = system: SNB-75 CNS
[49] = system: SR leukemia
[50] = system: SW-620 colon
[51] = system: T-47D breast
[52] = system: TK-10 renal
[53] = system: U251 CNS
[54] = system: UACC-257 melanoma
[55] = system: UACC-62 melanoma
[56] = system: UO-31 renal
[57] = system: CCRF-CEM leukemia
[58] = system: DLD-1 colon
[59] = system: DMS 114 small cell lung
[60] = system: DMS 273 small cell lung
[61] = system: KM20L2 colon
[62] = system: LXFL 529 NSCLC
[63] = system: SF-295 CNS
[64] = system: SNB-78 CNS
[65] = system: NCI-H226 lung

Structure (SMILES): Oc1ccc(Cl)cc1-c1cc(-c2ccccc2)nc(NCN2CCCCC2)n1
- TGI [1]: > 100 µM
- TGI [2]: > 100 µM
- TGI [3]: > 100 µM
- TGI [4]: > 100 µM
- TGI [5]: > 100 µM
- TGI [6]: > 100 µM
- TGI [7]: > 100 µM
- TGI [8]: > 100 µM
- TGI [9]: > 100 µM
- TGI [10]: > 100 µM
- TGI [11]: > 100 µM
- TGI [12]: > 100 µM
- TGI [13]: > 100 µM
- TGI [14]: > 100 µM
- TGI [15]: > 100 µM
- TGI [16]: > 100 µM
- TGI [17]: > 100 µM
- TGI [18]: > 100 µM
- TGI [19]: > 100 µM
- TGI [20]: > 100 µM
- TGI [21]: > 100 µM
- TGI [22]: > 100 µM
- TGI [23]: > 100 µM
- TGI [24]: > 100 µM
- TGI [25]: > 100 µM
- TGI [26]: > 100 µM
- TGI [27]: > 100 µM
- TGI [28]: > 100 µM
- TGI [29]: > 100 µM
- TGI [30]: > 100 µM
- TGI [31]: > 100 µM
- TGI [32]: > 100 µM
- TGI [33]: > 100 µM
- TGI [34]: > 100 µM
- TGI [35]: > 100 µM
- TGI [36]: > 100 µM
- TGI [37]: > 100 µM
- TGI [38]: > 100 µM
- TGI [39]: > 100 µM
- TGI [40]: > 100 µM
- TGI [41]: > 100 µM
- TGI [42]: > 100 µM
- TGI [43]: > 100 µM
- TGI [44]: > 100 µM
- TGI [45]: > 100 µM
- TGI [46]: > 100 µM
- TGI [47]: > 100 µM
- TGI [48]: > 100 µM
- TGI [49]: > 100 µM
- TGI [50]: > 100 µM
- TGI [51]: > 100 µM
- TGI [52]: > 100 µM
- TGI [53]: > 100 µM
- TGI [54]: > 100 µM
- TGI [55]: > 100 µM
- TGI [56]: > 100 µM

Structure (SMILES): COC(=O)CCC1CCc2c(OC)ccc(OC)c2C1=O (stereo not given)
- TGI [1]: > 100 µM
- TGI [3]: > 100 µM
- TGI [4]: > 100 µM
- TGI [57]: > 100 µM
- TGI [7]: > 100 µM
- TGI [58]: > 100 µM
- TGI [59]: > 100 µM
- TGI [60]: > 100 µM
- TGI [9]: > 100 µM
- TGI [10]: > 100 µM
- TGI [12]: > 100 µM
- TGI [13]: > 100 µM
- TGI [14]: > 100 µM
- TGI [17]: > 100 µM
- TGI [18]: > 100 µM
- TGI [19]: > 100 µM
- TGI [20]: > 100 µM
- TGI [61]: > 100 µM
- TGI [21]: > 100 µM
- TGI [62]: > 100 µM
- TGI [22]: > 100 µM
- TGI [23]: > 100 µM
- TGI [28]: > 100 µM
- TGI [29]: > 100 µM
- TGI [30]: > 100 µM
- TGI [31]: > 100 µM
- TGI [33]: > 100 µM
- TGI [34]: > 100 µM
- TGI [35]: > 100 µM
- TGI [36]: > 100 µM
- TGI [38]: > 100 µM
- TGI [39]: > 100 µM
- TGI [40]: > 100 µM
- TGI [63]: > 100 µM
- TGI [41]: > 100 µM
- TGI [42]: > 100 µM
- TGI [43]: > 100 µM
- TGI [44]: > 100 µM
- TGI [45]: > 100 µM
- TGI [46]: > 100 µM
- TGI [47]: > 100 µM
- TGI [48]: > 100 µM
- TGI [64]: > 100 µM
- TGI [49]: > 100 µM
- TGI [50]: > 100 µM
- TGI [52]: > 100 µM
- TGI [53]: > 100 µM
- TGI [54]: > 100 µM
- TGI [55]: > 100 µM
- TGI [56]: > 100 µM

Structure (SMILES): CSc1cc(-c2ccccn2)nc(-c2ccccn2)c1
- TGI [1]: 11.4 µM
- TGI [2]: 2.76 µM
- TGI [3]: 3.58 µM
- TGI [4]: 0.977 µM
- TGI [5]: 6.07 µM
- TGI [6]: 1.81 µM
- TGI [57]: > 100 µM
- TGI [7]: 7.29 µM
- TGI [8]: 26.6 µM
- TGI [9]: 12.3 µM
- TGI [10]: 12.9 µM
- TGI [11]: 11.7 µM
- TGI [12]: 4.11 µM
- TGI [13]: 0.89 µM
- TGI [14]: 4.49 µM
- TGI [15]: 2.91 µM
- TGI [16]: 48.9 µM
- TGI [17]: 13 µM
- TGI [18]: 8.99 µM
- TGI [19]: > 100 µM
- TGI [20]: 14.4 µM
- TGI [21]: 1.52 µM
- TGI [22]: 0.335 µM
- TGI [23]: 9.18 µM
- TGI [24]: 10.1 µM
- TGI [25]: 18.1 µM
- TGI [26]: 12.9 µM
- TGI [27]: 16 µM
- TGI [28]: > 100 µM
- TGI [65]: 0.955 µM
- TGI [29]: 7.25 µM
- TGI [30]: 1.88 µM
- TGI [31]: 9.74 µM
- TGI [32]: 1 µM
- TGI [33]: 5 µM
- TGI [34]: 13.2 µM
- TGI [35]: 9.46 µM
- TGI [36]: 12.5 µM
- TGI [37]: 17.9 µM
- TGI [38]: > 100 µM
- TGI [39]: 4.47 µM
- TGI [40]: > 35.2 µM
- TGI [63]: 11.5 µM
- TGI [41]: 6.06 µM
- TGI [42]: 14.9 µM
- TGI [43]: 14.8 µM
- TGI [44]: 4.07 µM
- TGI [45]: 10.8 µM
- TGI [46]: 13.4 µM
- TGI [47]: > 50.5 µM
- TGI [48]: 13.6 µM
- TGI [49]: > 100 µM
- TGI [50]: 16.6 µM
- TGI [51]: 17.6 µM
- TGI [52]: 0.75 µM
- TGI [53]: 11.7 µM
- TGI [54]: 15.3 µM
- TGI [55]: 1.23 µM
- TGI [56]: 1.64 µM
